Where two headings read alike, the source gives them in different places.
Molecular target: hT2R8 (Homo sapiens (Human), UniProt Q9NYW2)
Test: hT2R8 antagonist high-throughput FLIPR assay, stable cell line with G16g44, agonist andrographolide
Format: cell-based
Source text: After a ligand is identified for a particular hT2R, a HEK293 cell line stably expressing both the hT2R and G16gust44 are generated, facilitating future screening assays to identify other ligands that activate the particular hT2R or which modulate (block or enhance) the activation of this hT2R by another bitter ligand such as a bitter compound contained in coffee. This avoids the need for transient transfection.
(§1) To identify antagonists, cell lines stably expressing hT2R8 and hT2R14, respectively, together with the promiscuous chimeric G16g44 protein were generated as described in previous patent applications. A high-throughput assay was established using the stable cell lines and FLIPR (Fluorescent Imaging Plate Reader). An agonist of hT2R8 or hT2R14 was used to activate the receptors up to 70-80% of their respective maximal activity. For hT2R8, the agonist used was andrographolide (200 λM); for hT2R14, it was aristolochic acid (3 μM). To identify antagonists, compounds with diverse chemical structures were added together with the agonist.
as §1, with “hT2R8” for “hT2R8 and hT2R14, respectively,”, “hT2R8” for “hT2R8 or hT2R14”, “(200” for “(200 λM); for hT2R14, it was aristolochic acid (3”

[1] = read-out: IC50 on hT2R8 bitter receptor

hT2R8, sequence (Q9NYW2 whole entry): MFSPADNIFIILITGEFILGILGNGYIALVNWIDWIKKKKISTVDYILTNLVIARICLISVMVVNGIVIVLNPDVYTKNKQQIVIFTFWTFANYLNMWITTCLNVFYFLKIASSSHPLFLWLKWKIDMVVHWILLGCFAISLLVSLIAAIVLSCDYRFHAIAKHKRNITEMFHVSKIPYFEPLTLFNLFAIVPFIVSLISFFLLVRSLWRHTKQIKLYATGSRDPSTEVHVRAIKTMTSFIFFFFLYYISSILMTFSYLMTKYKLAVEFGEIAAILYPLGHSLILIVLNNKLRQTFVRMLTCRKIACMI

Row | IC50 (Table A, read-out: hT2R8 IC50) [nM] | Molecule | other results
1 | – | 1-((1,3-dimethyl-1H-pyrazol-4-yl)methyl)-3-(1-((3,5-dimethylisoxazol-4-yl)methyl)-1H-pyrazol-4-yl) imidazolidine-2,4-dione [Example 10-90] | IC50 (table after Example 10-97, read-out: hT2R8 IC50): 215 nM
2 | – | Cc1noc(C)c1Cn1cc(NC(=O)c2ccc3c(c2)OCO3)cn1 [Example 4-8, N-(1-((3,5-dimethylisoxazol-4-yl)methyl)-1H-pyrazol-4-yl)benzo[d][1,3]dioxole-5-carboxamide] | IC50 [1]: 200 nM
3 | – | COc1ccc(OC)c(C(=O)Nc2cnn(Cc3c(C)noc3C)c2)c1 [Example 4-9, N-(1-((3,5-dimethylisoxazol-4-yl)methyl)-1H-pyrazol-4-yl)-2,5-dimethoxybenzamide] | IC50 [1]: 170 nM
4 | – | Cc1noc(C)c1Cn1cc(NC(=O)c2cccc(C#N)c2)cn1 [Example 4-10, 3-cyano-N-(1-((3,5-dimethylisoxazol-4-yl)methyl)-1H-pyrazol-4-yl)benzamide] | IC50 [1]: 200 nM
5 | – | Cc1noc(C)c1Cn1cc(NC(=O)C2(c3ccccc3)CC2)cn1 [Example 4-11, N-(1-((3,5-dimethylisoxazol-4-yl)methyl)-1H-pyrazol-4-yl)-1-phenylcyclopropanecarboxamide] | IC50 [1]: 250 nM
6 | – | Cc1noc(C)c1Cn1cc(NC(=O)CC(C)c2ccccc2)cn1 (stereo not drawn) [Example 4-12, N-(1-((3,5-dimethylisoxazol-4-yl)methyl)-1H-pyrazol-4-yl)-3-phenylbutanamide] | IC50 [1]: 280 nM
7 | – | Cc1noc(C)c1Cn1cc(NC(=O)c2ccc[nH]2)cn1 [Example 4-13, N-(1-((3,5-dimethylisoxazol-4-yl)methyl)-1H-pyrazol-4-yl)-1H-pyrrole-2-carboxamide] | IC50 [1]: 570 nM
8 | – | Cc1noc(C)c1Cn1cc(NC(=O)CC2CCCCC2)cn1 [Example 4-14, 2-cyclohexyl-N-(1-((3,5-dimethylisoxazol-4-yl)methyl)-1H-pyrazol-4-yl)acetamide] | IC50 [1]: 730 nM
9 | – | Cc1noc(C)c1Cn1cc(NC(=O)/C=C/c2ccccc2)cn1 [Example 4-15, N-(1-((3,5-dimethylisoxazol-4-yl)methyl)-1H-pyrazol-4-yl)cinnamamide] | IC50 [1]: 700 nM
10 | 260 | COc1ccc(C(=O)Nc2cnn(Cc3c(C)noc3C)c2)cc1 [Example 4-17, N-(1-((3,5-dimethylisoxazol-4-yl)methyl)-1H-pyrazol-4-yl)-4-methoxybenzamide] | –
11 | 280 | COc1cc(OC)cc(C(=O)Nc2cnn(Cc3c(C)noc3C)c2)c1 [Example 4-18, N-(1-((3,5-dimethylisoxazol-4-yl)methyl)-1H-pyrazol-4-yl)-3,5-dimethoxybenzamide] | –
12 | 390 | COc1ccccc1C(=O)Nc1cnn(Cc2c(C)noc2C)c1 [Example 4-19, N-(1-((3,5-dimethylisoxazol-4-yl)methyl)-1H-pyrazol-4-yl)-2-methoxybenzamide] | –
13 | 480 | COc1cc(C(=O)Nc2cnn(Cc3c(C)noc3C)c2)ccc1O [Example 4-20, N-(1-((3,5-dimethylisoxazol-4-yl)methyl)-1H-pyrazol-4-yl)-4-hydroxy-3-methoxybenzamide] | –
14 | 560 | COc1ccc(C(=O)Nc2cnn(Cc3c(C)noc3C)c2)cc1OC [Example 4-21, N-(1-((3,5-dimethylisoxazol-4-yl)methyl)-1H-pyrazol-4-yl)-3,4-dimethoxybenzamide] | –
15 | 1560 | Cc1noc(C)c1Cn1cc(NC(=O)c2ccc(F)cc2)cn1 [Example 4-23, N-(1-((3,5-dimethylisoxazol-4-yl)methyl)-1H-pyrazol-4-yl)-4-fluorobenzamide] | –
16 | 2620 | Cc1noc(C)c1Cn1cc(NC(=O)c2ccccc2)cn1 [Example 4-24, N-(1-((3,5-dimethylisoxazol-4-yl)methyl)-1H-pyrazol-4-yl)benzamide] | –
17 | 610 | COc1cccc(C(=O)Nc2cnn(Cc3c(C)noc3C)c2)c1OC [Example 4-25, N-(1-((3,5-dimethylisoxazol-4-yl)methyl)-1H-pyrazol-4-yl)-2,3-dimethoxybenzamide] | –
18 | 720 | Cc1noc(C)c1Cn1cc(NC(=O)c2cccc(S(C)(=O)=O)c2)cn1 [Example 4-26, N-(1-((3,5-dimethylisoxazol-4-yl)methyl)-1H-pyrazol-4-yl)-3-(methylsulfonyl)benzamide] | –
19 | 980 | COc1ccc(O)c(C(=O)Nc2cnn(Cc3c(C)noc3C)c2)c1 [Example 4-27, N-(1-((3,5-dimethylisoxazol-4-yl)methyl)-1H-pyrazol-4-yl)-2-hydroxy-5-methoxybenzamide] | –

Row | IC50 (Table A, read-out: hT2R8 IC50) [nM] | Molecule | other results
20 | 570 | Cc1cccc(C(=O)Nc2cnn(Cc3c(C)noc3C)c2)c1 [Example 4-28, N-(1-((3,5-dimethylisoxazol-4-yl)methyl)-1H-pyrazol-4-yl)-3-methylbenzamide] | –
21 | 800 | COc1cccc(CC(=O)Nc2cnn(Cc3c(C)noc3C)c2)c1OC [Example 4-31, 2-(2,3-dimethoxyphenyl)-N-(1-((3,5-dimethylisoxazol-4-yl)methyl)-1H-pyrazol-4-yl)acetamide] | –
22 | 960 | COc1cc(CC(=O)Nc2cnn(Cc3c(C)noc3C)c2)cc(OC)c1 [Example 4-32, 2-(3,5-dimethoxyphenyl)-N-(1-((3,5-dimethylisoxazol-4-yl)methyl)-1H-pyrazol-4-yl)acetamide] | –
23 | 990 | COc1ccc(CC(=O)Nc2cnn(Cc3c(C)noc3C)c2)cc1 [Example 4-33, N-(1-((3,5-dimethylisoxazol-4-yl)methyl)-1H-pyrazol-4-yl)-2-(4-methoxyphenyl)acetamide] | –
24 | 1160 | COc1ccccc1CC(=O)Nc1cnn(Cc2c(C)noc2C)c1 [Example 4-35, N-(1-((3,5-dimethylisoxazol-4-yl)methyl)-1H-pyrazol-4-yl)-2-(2-methoxyphenyl)acetamide] | –
25 | 500 | CCC(C(=O)Nc1cnn(Cc2c(C)noc2C)c1)c1ccccc1 (stereo not drawn) [Example 4-37, N-(1-((3,5-dimethylisoxazol-4-yl)methyl)-1H-pyrazol-4-yl)-2-phenylbutanamide] | –
26 | 830 | CC(=O)OC(C(=O)Nc1cnn(Cc2c(C)noc2C)c1)c1ccccc1 (stereo not drawn) [Example 4-39, 2-(1-((3,5-dimethylisoxazol-4-yl)methyl)-1H-pyrazol-4-ylamino)-2-oxo-1-phenylethyl acetate] | –
27 | 960 | Cc1noc(C)c1Cn1cc(NC(=O)C(CO)c2ccccc2)cn1 (stereo not drawn) [Example 4-40, N-(1-((3,5-dimethylisoxazol-4-yl)methyl)-1H-pyrazol-4-yl)-3-hydroxy-2-phenylpropanamide] | –
28 | 3430 | COC(C(=O)Nc1cnn(Cc2c(C)noc2C)c1)c1ccccc1 (stereo not drawn) [Example 4-43, N-(1-((3,5-dimethylisoxazol-4-yl)methyl)-1H-pyrazol-4-yl)-2-methoxy-2-phenylacetamide] | –
29 | 5190 | Cc1noc(C)c1Cn1cc(NC(=O)C(c2ccccc2)c2ccccc2)cn1 [Example 4-44, N-(1-((3,5-dimethylisoxazol-4-yl)methyl)-1H-pyrazol-4-yl)-2,2-diphenylacetamide] | –
30 | 720 | Cc1c[nH]c(C(=O)Nc2cnn(Cc3c(C)noc3C)c2)c1 [Example 4-45, N-(1-((3,5-dimethylisoxazol-4-yl)methyl)-1H-pyrazol-4-yl)-4-methyl-1H-pyrrole-2-carboxamide] | –
31 | 1050 | Cc1noc(C)c1Cn1cc(NC(=O)c2cccnc2)cn1 [Example 4-46, N-(1-((3,5-dimethylisoxazol-4-yl)methyl)-1H-pyrazol-4-yl)nicotinamide] | –
32 | 1950 | Cc1cccc(C(=O)Nc2cnn(Cc3c(C)noc3C)c2)n1 [Example 4-48, N-(1-((3,5-dimethylisoxazol-4-yl)methyl)-1H-pyrazol-4-yl)-6-methylpicolinamide] | –
33 | 3400 | Cc1noc(C)c1Cn1cc(NC(=O)c2cccn2C)cn1 [Example 4-49, N-(1-((3,5-dimethylisoxazol-4-yl)methyl)-1H-pyrazol-4-yl)-1-methyl-1H-pyrrole-2-carboxamide] | –
34 | 4590 | Cc1noc(C)c1Cn1cc(NC(=O)c2ccncc2)cn1 [Example 4-50, N-(1-((3,5-dimethylisoxazol-4-yl)methyl)-1H-pyrazol-4-yl)isonicotinamide] | –
35 | 7870 | Cc1noc(C)c1Cn1cc(NC(=O)c2ccoc2C)cn1 [Example 4-51, N-(1-((3,5-dimethylisoxazol-4-yl)methyl)-1H-pyrazol-4-yl)-2-methylfuran-3-carboxamide] | –
36 | 18000 | Cc1cc(C(=O)Nc2cnn(Cc3c(C)noc3C)c2)n(C)n1 [Example 4-52, N-(1-((3,5-dimethylisoxazol-4-yl)methyl)-1H-pyrazol-4-yl)-1,3-dimethyl-1H-pyrazole-5-carboxamide] | –
37 | 3030 | Cc1cc(C(=O)Nc2cnn(Cc3c(C)noc3C)c2)c(C)o1 [Example 4-53, N-(1-((3,5-dimethylisoxazol-4-yl)methyl)-1H-pyrazol-4-yl)-2,5-dimethylfuran-3-carboxamide] | –
38 | 3190 | Cc1ccc(C(=O)Nc2cnn(Cc3c(C)noc3C)c2)o1 [Example 4-54, N-(1-((3,5-dimethylisoxazol-4-yl)methyl)-1H-pyrazol-4-yl)-5-methylfuran-2-carboxamide] | –

Row | Molecule | IC50 (Table A, read-out: hT2R8 IC50) [nM] | other results
39 | Cc1noc(C)c1Cn1cc(NC(=O)[C@H](C)c2ccccc2)cn1 [Example 4-42, (R)-N-(1-((3,5-dimethylisoxazol-4-yl)methyl)-1H-pyrazol-4-yl)-2-phenylpropanamide] | 3720 | –
